Assay results published in patent US10294202B2, “Pyrrolidinones as herbicides” (FMC Corporation, priority 2013, dated 2019).

How the values were obtained:
barnyardgrass [1] = assay: Test A pre-/postemergence herbicide test; type: in vivo, Echinochloa crus-galli
Outline: (§1)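 Both application timings used compounds in a non-phytotoxic solvent plus surfactant. Pre-emergence: soil sprayed directly after seeding into loam/sand. Post-emergence: foliage of 2–10 cm seedlings (1–2 leaves) sprayed. Injury rated ~10 days later, 0–100.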

crabgrass, large = assay: Test A pre-/postemergence herbicide test; type: in vivo, Digitaria sanguinalis
Outline: as §1

giant foxtail = assay: Test A pre-/postemergence herbicide test; type: in vivo, Setaria faberii
Outline: as §1

morningglory = assay: Test A pre-/postemergence herbicide test; type: in vivo, Ipomoea spp.
Outline: as §1

pigweed = assay: Test A pre-/postemergence herbicide test; type: in vivo, Amaranthus retroflexus
Outline: as §1

velvetleaf = assay: Test A pre-/postemergence herbicide test; type: in vivo, Abutilon theophrasti
Outline: as §1

wheat = assay: Test A pre-/postemergence herbicide test; type: in vivo, Triticum aestivum
Outline: as §1

corn = assay: Test A pre-/postemergence herbicide test; type: in vivo, Zea mays
Outline: as §1

rice = assay: Test B flooded paddy test; type: in vivo, Oryza sativa; conditions: Flood, scale of 0 to 100 where 0 is no effect and 100 is complete control
Outline: (§2)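 2-leaf plants; flood 3 cm over soil; compound into paddy water; depth held. Greenhouse 13–15 d. Visual rating vs controls, 0 (no effect) to 100 (complete control); dash = not tested.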

sedge, umbrella = assay: Test B flooded paddy test; type: in vivo, Cyperus difformis; conditions: Flood, scale of 0 to 100 where 0 is no effect and 100 is complete control
Outline: as §2

ducksalad = assay: Test B flooded paddy test; type: in vivo, Heteranthera limosa; conditions: Flood, scale of 0 to 100 where 0 is no effect and 100 is complete control
Outline: as §2

barnyardgrass [2] = assay: Test B flooded paddy test; type: in vivo, Echinochloa crus-galli; conditions: Flood, scale of 0 to 100 where 0 is no effect and 100 is complete control
Outline: as §2

[3] = 125 g ai/ha, visual rating, 0 to 100 scale, 0 no effect, 100 complete control, approximately 10 days, preemergence
[4] = Postemergence, 125 g ai/ha, 0 to 100 scale, 0 no effect, 100 complete control
[5] = Postemergence, 500 g ai/ha, 0 to 100 scale (0 no effect, 100 complete control)
[6] = preemergence, 500 g ai/ha, 0 to 100 scale
[7] = Postemergence, 1000 g ai/ha, 0 to 100 scale (0 no effect, 100 complete control)
[8] = preemergence, 1000 g ai/ha, 0 to 100 scale
[9] = Postemergence, 125 g ai/ha, 0 to 100 scale, 0 is no effect, 100 is complete control
[10] = preemergence, 500 g ai/ha, 0 to 100 scale, 0 is no effect and 100 is complete control

O=C1NCC(c2ccc3ccccc3c2)C1C(=O)Nc1ccccc1C(F)(F)F (racemic) [Compound 117]
Plant response rating, Barnyardgrass (barnyardgrass [1]; [3]): 0
Plant response rating, Barnyardgrass (barnyardgrass [1]; [4]): 0
Plant response rating, Barnyardgrass (barnyardgrass [1]; [5]): 30
Plant response rating, Barnyardgrass (barnyardgrass [1]; preemergence, 500 g ai/ha, 0 to 100 scale (0 no effect, 100 complete control)): 20
Plant response rating, Crabgrass, Large (crabgrass, large; [3]): 60
Plant response rating, Crabgrass, Large (crabgrass, large; [4]): 30
Crabgrass, Large plant response rating (0 to 100 scale, 0 is no effect, 100 is complete control) (crabgrass, large; Postemergence, 500 g ai/ha): 60
Plant response rating, Crabgrass, Large (crabgrass, large; [6]): 80
Plant response rating, Foxtail, Giant (giant foxtail; [3]): 20
Plant response rating, Foxtail, Giant (giant foxtail; [4]): 20
Foxtail, Giant plant response rating (0 to 100 scale, 0 is no effect, 100 is complete control) (giant foxtail; Postemergence, 500 g ai/ha): 50
Plant response rating, Foxtail, Giant (giant foxtail; [6]): 70
Plant response rating, Morningglory (morningglory; [3]): 0
Plant response rating, Morningglory (morningglory; [4]): 0
Morningglory plant response rating (0 to 100 scale, 0 is no effect, 100 is complete control) (morningglory; Postemergence, 500 g ai/ha): 0
Plant response rating, Morningglory (morningglory; [6]): 0
Plant response rating, Pigweed (pigweed; [3]): 0
Plant response rating, Pigweed (pigweed; [4]): 0
Pigweed plant response rating (0 to 100 scale, 0 is no effect, 100 is complete control) (pigweed; Postemergence, 500 g ai/ha): 0
Plant response rating, Pigweed (pigweed; [6]): 0
Plant response rating, Velvetleaf (velvetleaf; [3]): 0
Plant response rating, Velvetleaf (velvetleaf; [4]): 0
Velvetleaf plant response rating (0 to 100 scale, 0 is no effect, 100 is complete control) (velvetleaf; Postemergence, 500 g ai/ha): 0
Plant response rating, Velvetleaf (velvetleaf; [6]): 0
Plant response rating, Wheat (wheat; [3]): 0
Plant response rating, Wheat (wheat; [4]): 0
Wheat plant response rating (0 to 100 scale, 0 is no effect, 100 is complete control) (wheat; Postemergence, 500 g ai/ha): 0
Plant response rating, Wheat (wheat; [6]): 0
Plant response rating, Corn (corn; [3]): 0
Plant response rating, Corn (corn; [4]): 0
Plant response rating, Corn (corn; [5]): 20
Plant response rating, Corn (corn; [6]): 0
Plant response rating, Rice (rice; 1000 g ai/ha): 0
Plant response rating, Sedge, Umbrella (sedge, umbrella; 1000 g ai/ha): 0
Plant response rating, Ducksalad (ducksalad; 1000 g ai/ha): 90
Plant response rating, Barnyardgrass (barnyardgrass [2]; 1000 g ai/ha): 40

O=C1NCC(c2ccc(F)c(F)c2)C1C(=O)Nc1ccc(F)cc1 (racemic) [Compound 193]
Plant response rating, Barnyardgrass (barnyardgrass [1]; [7]): 90
Plant response rating, Barnyardgrass (barnyardgrass [1]; preemergence, 1000 g ai/ha, 0 to 100 scale (0 no effect, 100 complete control)): 80
Plant response rating, Crabgrass, Large (crabgrass, large; [7]): 90
Plant response rating, Crabgrass, Large (crabgrass, large; [8]): 100
Plant response rating, Foxtail, Giant (giant foxtail; [7]): 80
Plant response rating, Foxtail, Giant (giant foxtail; [8]): 90
Plant response rating, Morningglory (morningglory; [7]): 0
Plant response rating, Morningglory (morningglory; [8]): 0
Plant response rating, Pigweed (pigweed; [7]): 0
Plant response rating, Pigweed (pigweed; [8]): 0
Plant response rating, Velvetleaf (velvetleaf; [7]): 0
Plant response rating, Velvetleaf (velvetleaf; [8]): 0
Plant response rating, Wheat (wheat; [7]): 0
Plant response rating, Wheat (wheat; [8]): 0
Plant response rating, Corn (corn; [7]): 0
Plant response rating, Corn (corn; [8]): 0
Plant response rating, Rice (rice; 1000 g ai/ha): 20
Plant response rating, Sedge, Umbrella (sedge, umbrella; 1000 g ai/ha): 20
Plant response rating, Ducksalad (ducksalad; 1000 g ai/ha): 60
Plant response rating, Barnyardgrass (barnyardgrass [2]; 1000 g ai/ha): 0

COc1cc(C2CNC(=O)C2C(=O)Nc2ccccc2F)ccc1F (racemic) [Compound 194]
Plant response rating, Barnyardgrass (barnyardgrass [1]; [3]): 0
Plant response rating, Barnyardgrass (barnyardgrass [1]; [9]): 50
Barnyardgrass plant response rating (0 to 100 scale, 0 is no effect, 100 is complete control) (barnyardgrass [1]; Postemergence, 500 g ai/ha): 80
Plant response rating, Barnyardgrass (barnyardgrass [1]; [10]): 80
Plant response rating, Crabgrass, Large (crabgrass, large; [3]): 90
Plant response rating, Crabgrass, Large (crabgrass, large; [9]): 60
Crabgrass, Large plant response rating (0 to 100 scale, 0 is no effect, 100 is complete control) (crabgrass, large; Postemergence, 500 g ai/ha): 80
Plant response rating, Crabgrass, Large (crabgrass, large; [10]): 100
Plant response rating, Foxtail, Giant (giant foxtail; [3]): 50
Plant response rating, Foxtail, Giant (giant foxtail; [9]): 10
Foxtail, Giant plant response rating (0 to 100 scale, 0 is no effect, 100 is complete control) (giant foxtail; Postemergence, 500 g ai/ha): 50
Plant response rating, Foxtail, Giant (giant foxtail; [10]): 90
Plant response rating, Morningglory (morningglory; [3]): 0
Plant response rating, Morningglory (morningglory; [9]): 0
Morningglory plant response rating (0 to 100 scale, 0 is no effect, 100 is complete control) (morningglory; Postemergence, 500 g ai/ha): 0
Plant response rating, Morningglory (morningglory; [10]): 0
Plant response rating, Pigweed (pigweed; [3]): 0
Plant response rating, Pigweed (pigweed; [9]): 0
Pigweed plant response rating (0 to 100 scale, 0 is no effect, 100 is complete control) (pigweed; Postemergence, 500 g ai/ha): 0
Plant response rating, Pigweed (pigweed; [10]): 0
Plant response rating, Velvetleaf (velvetleaf; [3]): 0
Plant response rating, Velvetleaf (velvetleaf; [9]): 0
Velvetleaf plant response rating (0 to 100 scale, 0 is no effect, 100 is complete control) (velvetleaf; Postemergence, 500 g ai/ha): 0
Plant response rating, Velvetleaf (velvetleaf; [10]): 0
Plant response rating, Wheat (wheat; [3]): 0
Plant response rating, Wheat (wheat; [9]): 0
Wheat plant response rating (0 to 100 scale, 0 is no effect, 100 is complete control) (wheat; Postemergence, 500 g ai/ha): 0
Plant response rating, Wheat (wheat; [10]): 0
Plant response rating, Corn (corn; [3]): 0
Plant response rating, Corn (corn; [9]): 0
Corn plant response rating (0 to 100 scale, 0 is no effect, 100 is complete control) (corn; Postemergence, 500 g ai/ha): 0
Plant response rating, Corn (corn; [10]): 0
Plant response rating, Rice (rice; 250 g ai/ha): 0
Plant response rating, Rice (rice; 1000 g ai/ha): 20
Plant response rating, Sedge, Umbrella (sedge, umbrella; 250 g ai/ha): 0
Plant response rating, Sedge, Umbrella (sedge, umbrella; 1000 g ai/ha): 0
Plant response rating, Ducksalad (ducksalad; 250 g ai/ha): 45
Plant response rating, Ducksalad (ducksalad; 1000 g ai/ha): 80
Plant response rating, Barnyardgrass (barnyardgrass [2]; 250 g ai/ha): 0
Plant response rating, Barnyardgrass (barnyardgrass [2]; 1000 g ai/ha): 65

COc1cc(C2CNC(=O)C2C(=O)Nc2cccc(F)c2F)ccc1F (racemic) [Compound 195]
Plant response rating, Barnyardgrass (barnyardgrass [1]; [3]): 30
Plant response rating, Barnyardgrass (barnyardgrass [1]; [9]): 80
Barnyardgrass plant response rating (0 to 100 scale, 0 is no effect, 100 is complete control) (barnyardgrass [1]; Postemergence, 500 g ai/ha): 90
Plant response rating, Barnyardgrass (barnyardgrass [1]; [10]): 90
Plant response rating, Crabgrass, Large (crabgrass, large; [3]): 90
Plant response rating, Crabgrass, Large (crabgrass, large; [9]): 80
Crabgrass, Large plant response rating (0 to 100 scale, 0 is no effect, 100 is complete control) (crabgrass, large; Postemergence, 500 g ai/ha): 80
Plant response rating, Crabgrass, Large (crabgrass, large; [10]): 90
Plant response rating, Foxtail, Giant (giant foxtail; [3]): 80
Plant response rating, Foxtail, Giant (giant foxtail; [9]): 30
Foxtail, Giant plant response rating (0 to 100 scale, 0 is no effect, 100 is complete control) (giant foxtail; Postemergence, 500 g ai/ha): 70
Plant response rating, Foxtail, Giant (giant foxtail; [10]): 90
Plant response rating, Morningglory (morningglory; [3]): 0
Plant response rating, Morningglory (morningglory; [9]): 0
Morningglory plant response rating (0 to 100 scale, 0 is no effect, 100 is complete control) (morningglory; Postemergence, 500 g ai/ha): 0
Plant response rating, Morningglory (morningglory; [10]): 0
Plant response rating, Pigweed (pigweed; [3]): 0
Plant response rating, Pigweed (pigweed; [9]): 0
Pigweed plant response rating (0 to 100 scale, 0 is no effect, 100 is complete control) (pigweed; Postemergence, 500 g ai/ha): 0
Plant response rating, Pigweed (pigweed; [10]): 0
Plant response rating, Velvetleaf (velvetleaf; [3]): 0
Plant response rating, Velvetleaf (velvetleaf; [9]): 0
Velvetleaf plant response rating (0 to 100 scale, 0 is no effect, 100 is complete control) (velvetleaf; Postemergence, 500 g ai/ha): 0
Plant response rating, Velvetleaf (velvetleaf; [10]): 0
Plant response rating, Wheat (wheat; [3]): 0
Plant response rating, Wheat (wheat; [9]): 0
Wheat plant response rating (0 to 100 scale, 0 is no effect, 100 is complete control) (wheat; Postemergence, 500 g ai/ha): 30
Plant response rating, Wheat (wheat; [10]): 0
Plant response rating, Corn (corn; [3]): 0
Plant response rating, Corn (corn; [9]): 0
Corn plant response rating (0 to 100 scale, 0 is no effect, 100 is complete control) (corn; Postemergence, 500 g ai/ha): 0
Plant response rating, Corn (corn; [10]): 0
Plant response rating, Rice (rice; 250 g ai/ha): 0
Plant response rating, Rice (rice; 1000 g ai/ha): 15
Plant response rating, Sedge, Umbrella (sedge, umbrella; 250 g ai/ha): 0
Plant response rating, Sedge, Umbrella (sedge, umbrella; 1000 g ai/ha): 0
Plant response rating, Ducksalad (ducksalad; 250 g ai/ha): 35
Plant response rating, Ducksalad (ducksalad; 1000 g ai/ha): 100
Plant response rating, Barnyardgrass (barnyardgrass [2]; 250 g ai/ha): 30
Plant response rating, Barnyardgrass (barnyardgrass [2]; 1000 g ai/ha): 70
